The results in this text go back to EP0503537B1, “6,9 Bis(substituted-amino)benzo-[g]isoquinoline-5,10-diones” (THE UNIVERSITY OF VERMONT, priority 1991, dated 1992).

In data set [1] the test system is human colon adenocarcinoma cell line (Lovo). In words: MTT cytotoxicity assay on human colon adenocarcinoma Lovo cells. The conditions noted are these: 144 h, read-out: IC50 µg/ml±S.D. LoVo. The class given is cell-based. How it is done:
(§1) The evaluation of the "in vitro" cytotoxic activity of the compounds of the invention was performed using a human colon adenocarcinoma cell line (Lovo) isolated from a metastatic nodule and a subline with aquired resistance to a number of antitumor agents, among which doxorubicin, VP-16 and vincristine. […] The compounds were tested according to the MTT assay (Mosman, T., "Rapid Colorimetric assay for cellular growth and survival: application to proliferation and cytotoxicity assay", J. Immunol. Methods, (1983), 65, 55-63; Green, L.M., "Rapid colorimetric assay for cell viability; application to the quantitation of cytotoxic and growth inhibitory lymphokines", J. Immunol. Methods, (1984), 70, 257-268) in comparison with mitoxantrone, ametantrone and doxorubicin.
(§2) In vitro biological evaluation: MTT assay on human colon adenocarcinoma Lovo cells.
(§3) The MTT assay was performed according to Mosmann, T., J. Immunol. Methods, (1983), 65, 55-63 and Green, L. M., J. Immunol. Methods, (1984), 70, 257-268.
(§4) Immediately before use, compounds and reference standards are dissolved in proper solvent and subsequently further diluted in complete culture medium. Human colon adenocarcinoma cells Lovo and the subline resistant to doxorubicin (Lovo/DX) (2.5. 10^4 cells/ml) are plated in 96-well plates and preincubated for 24 hours in culture medium. After this time, the cells are exposed to drugs for 144 hours, then the thiazolyl blue tetrazolium bromide solution (MTT solution) is added and the cells are reincubated for 4 hours. The supernatant is removed and 150 µl of dimethylsulfoxide are added to solubilize formazan crystals. The plate is read at 570 nm with microplate reader and the inhibiting concentration of 50% cellular growth (IC50; µg/ml) is calculated.
A general note: Tetrazolium assays rely on reduction of a dye to a coloured formazan, in cell work by metabolically active cells.

A further data set concerns Lovo/DX. In words: MTT cytotoxicity assay on doxorubicin-resistant subline Lovo/DX. The class given is cell-based, human. The protocol: as §1, §2, §3, §4
Data set [2] relates to P388 Murine Leukemia. In words: In vivo P388 murine leukemia (iv/iv, d 1, 4, 7). The conditions noted are these: for T/C% (range): median survival time; for TOX: toxic deaths/total number of mice; for LTS: tumor free at 60 days. The protocol: P388 Murine Leukemia cells were maintained in vivo by serial intraperitoneal (i.p.) injections of 10^6 cells in DBA2 mice. For test purposes, CDF1 mice were inoculated intravenously (i.v.) with 10^6 P388 cells and treatment was initiated 24 hr later. The i.v. dose of drug was administered on days 1, 4 and 7. Mice were observed daily for signs of toxicity and survival. The date of death was recorded for each animal that died or was sacrificed during the 60 day study. The median survival time (MST) for each treatment group was calculated and the % T/C was determined using the following formula: % T/C = [(MST treated)/(MST control)] x 100 [formula]

The subject of data set [3] is P388 Murine Leukemia. In words: In vivo ascitic P388 murine leukemia (ip/ip, d 1, 5, 9). Details: species or system CDF1 mice. The conditions noted are these: for % T/C (range): median survival time; for TOX: toxic deaths/total No. of mice. How it is done:
Treatment was initiated approximately 24 hours after tumor transplantation and dosages of the drug were administered ip (P388 ip/ip) or iv (P388 iv/iv) according to preestablished protocols, usually at 3-day (P388 iv/iv) or 4-day (P388 ip/ip) intervals. The studies were done over a 60-day period and the date of death for each animal was recorded. The % T/C was determined using the mean survival time (MST) for each group according to the formula % T/C = [(MST treated)/(MST control)] x 100 [formula]
P388 Murine Leukemia cells were maintained in vivo by serial intraperitoneal (ip) injections of 10^6 cells in DBA2 mice. For test purposes, CDF1 mice were inoculated i.p. with 10^6 P388 cells and treatment was initiated 24 hours later. The i.p dose of drug was administered on days 1, 5 and 9. Mice were observed daily for signs of toxicity and survival. The date of death was recorded for each animal that died or was sacrificed during the 60-day study. The median survival time (MST) for each treatment group was calculated and the % T/C was determined using the following formula: % T/C = [(MST treated)/(MST control)] x 100 [formula]

Data set [4] has as its system murine Lewis Lung carcinoma. In words: In vivo murine Lewis Lung carcinoma (im/iv). Details: species or system C57b1/6 female mice. The conditions noted are these: LEWIS LUNG im/iv 1,8,15; for T/C %: median survival time; for TOX: toxic deaths/total number of mice; for TWI %: tumor Weight Inhibition 7 days after last treatment. The protocol:
(§5) These tumor models are enclosed in the panel of eight transplanted tumors used by the U.S.-NCl as screen panel for selection of clinically useful antitumor agents (R.K.Y. Zee Cheng and C.C. Cheng, "Screening and evaluation of anticancer agents", Meth. and Find. Expl. Clin. Pharmacol., (1988), 10(2), 67-101).
C57b1/6 female mice were trasplantated im (intralimbs) with 10^5 cells. […] The mean tumor weight for each treatment group was calculated according to Geran, R.I. et al., Cancer Chemother. Rep., (1972), 3, 51-61 and the TWI% was calculated 7 days after the last drug treatment using the formula: TWI% = 100-[(Mean tumor weight of treated mice)/(mean tumor weight of controls)] x 100. [formula]

For data set [5], the system named is human MX-1 mammary carcinoma. In words: In vivo human MX-1 mammary carcinoma xenograft (sc/iv). Conditions: MX-1 sc/iv q 7d x 3; for TWI %: CD1 nu/nu female mice; for TOX: toxic deaths/total number of mice.
From the text: as §5
CD1 nu/nu female mice were transplantated sc (subcutaneously) with tumor fragments (about 1 mm x 1 mm x 1 mm). Treatment was given iv once a week for three weeks, when tumor weight reached an average of 150 mg. For all individual tumors the weight change (relative tumor weight) for the start of treatment (Vo) was expressed as Vt/Vo at each day of measurement (Vt). TWI% was calculated 7 days after the last drug treatment using the formula: TWI% = 100-[(mean relative tumor weight of treated mice)/(mean relative tumor weight of controls)] x 100. [formula]

For data set [6], the system named is L1210 Murine leukemia cells. In words: In vitro growth inhibition of L1210 murine leukemia cells (Coulter Counter). The class given is cell-based. The conditions noted are these: Mus musculus, 72 hours of continuous exposure. How it is done: The "in vitro" cytotoxic evaluation was also performed on L 1210 murine leukemia cells using the above mentioned cells maintained in suspension cultures (McCoy's 5A medium supplemented with 10% horse serum, glutamine, penicillin and streptomycin) grown in an humidified environment of 10% carbon dioxide and 90% air at 37°C. The compounds were dissolved in dimethylsulfoxide (DMSO) and added to the suspended cells in appropriate concentrations. After 72 hours of continuous exposure, the cell concentration was counted using a Coulter Counter and growth inhibition calculated using the formula: % growth inhibition = 1 - [cell number treated/cell number DMSO alone] x 100. [formula]
The IC50 was calculated from the growth inhibition data and they are reported in table VII in comparison to the prior art compound 5a (see table I for structure of 5a).
L1210 Murine leukemia cells were routinely maintained in suspension cultures in McCoy's 5A medium supplemented with 10% horse serum glutamine, penicillin and streptomycin and grown in a humidified environment of 10% carbon dioxide and 90% air at 37°C.
To assess the in vitro toxicity, each compound was dissolved in dimethylsulfoxide and added to 1 ml of L1210 cells (10^5 cells/tube) to attain final concentrations of 0.01, 0.1 and 1 µg of drug/ml of culture. After 72 hours of continues exposure to the drug, the cell concentration was determined with a Coulter Counter. Growth inhibition was calculated for each drug using the following formula: % growth inhibition = 1-[cell number treated/cell number DMSO alone] x 100. [formula]
The growth inhibition data was then used to calculate the IC50 value (the calculated drug concentration required to inhibit cell growth by 50% of control.

For another data set, the system named is L1210 murine leukemia. In words: In vivo L1210 murine leukemia (ip/ip, d 1, 5, 9), protocol a, 10^6 cells. Details: species or system BDF1 mice. The conditions noted are these: days 1, 5 and 9, ip; for %T/C: mean survival time; for LTS: tumor-free at 60 days. The protocol: L 1210 leukemia cells were intraperitoneally (ip) injected in CDFl mice and treatment was initiated approximately 24 hours after tumor transplantation. Dosages of the drugs were administered ip according to preestablished protocols, usually at 4-day intervals. The studies were done over a 60-day period and the date of death for each animal was recorded. The % T/C was determined using the mean survival time (MST) for each group according to the formula % T/C = [(MST treated)/(MST control)] x 100 [formula]
• a) L1210 murine leukemia cells were maintained in vivo by weekly intraperitoneal (ip) injections of 10^6 cells in BDF1 mice. For test purposes, mice were inoculated i.p. with 10^6 L1210 cells and treatment was initiated 24 hours later. The desired dose of drug was administered on days 1, 5 and 9. Mice were observed daily for signs of toxicity and survival. The date of death was recorded for each animal that died or was sacrificed during the 60-day study. The mean survival time (MST) for each treatment group was calculated and the % T/C was determined using the following formula: % T/C = [(MST treated)/(MST control)] x 100 [formula] The results are reported in table X • b) L1210 murine leukemia cells were maintained in vivo by weekly intraperitoneal (ip) injections of 10^5 cells in DBA2 mice. For test purposes, CDF1 mice were inoculated i.p. with 10^5 L1210 cells and treatment was initiated 24 hours later. The desired dose of drug was administered on days 1, 5 and 9. Mice were observed daily for signs of toxicity and survival. The date of death was recorded for each animal that died or was sacrificed during the 60-day study. The median survival time (MST) for each treatment group was calculated and the % T/C was determined using the following formula: % T/C = [(MST treated)/(MST control)] x 100 [formula]

SMILES strings stand for the structures. Values after ≈ are worked out from the molar mass of the structure shown. Values joined by “and” are separate entries in the source; they are usually repeats but may differ in a detail not shown here. Identical values can stand only once.

`NCCNc1ccc(NCCN)c2c1C(=O)c1ccncc1C2=O.O=C(O)/C=C\C(=O)O.O=C(O)/C=C\C(=O)O` [Compound 10i.maleate, 6,9-bis{[2-(amino)ethyl]amino}benzo[g]isoquinoline-5,10-dione dimaleate]: the IC50 is 0.21 ± 0.08 mg/L in data set [1] and 6.7 ± 1.8 mg/L in the data set on Lovo/DX (Homo sapiens, LoVo/DX, MTT assay, 144 hrs drug exposure, read-out: IC50 µg/ml±S.D. LoVo/Dx). In the data set with Lovo/DX (R.I. = (IC50 LoVo/Dx)/(IC50 LoVo)), this compound displayed a R.I. of 31.8. The “T/C% (range)” value was 200% and 188% in the data set with P388 Murine Leukemia [2] (18 mg/kg/day iv days 1,4,7, dimaleate); 203(181-227) % in the data set with P388 Murine Leukemia [2] (27 mg/kg/day iv days 1,4,7). The TOX was 0/16 in the data set with P388 Murine Leukemia [2] (18 mg/kg/day iv days 1,4,7); 2/32 in the data set on P388 Murine Leukemia [2] (27 mg/kg/day iv days 1,4,7); 0/8 with P388 Murine Leukemia [3] (25 mg/kg/day ip days 1,5,9); 1/8 in the data set with P388 Murine Leukemia [3] (37.5 mg/kg/day ip days 1,5,9); 0/10 in data set [4] (40 mg/Kg/day); 1/10 in data set [4] (60 mg/Kg/day). The results for the TOX in data set [5] (17 mg/Kg/day), in data set [5] (26.6 mg/Kg/day) and in data set [5] (40 mg/Kg/day) were 0/7, 0/7 and 1/5, respectively. Moreover, the LTS with P388 Murine Leukemia [2] (18 mg/kg/day iv days 1,4,7) is 0/16; in the data set on P388 Murine Leukemia [2] (27 mg/kg/day iv days 1,4,7) it was 0/32. Further, the “LTS (day 60)” value was 0/8 in the data set with P388 Murine Leukemia [3] (25 mg/kg/day ip days 1,5,9) and 1/8 in the data set with P388 Murine Leukemia [3] (37.5 mg/kg/day ip days 1,5,9). Moreover, the “% T/C (range)” value with P388 Murine Leukemia [3] (25 mg/kg/day ip days 1,5,9) is on record as 185%; in the data set on P388 Murine Leukemia [3] (37.5 mg/kg/day ip days 1,5,9), 260%. Besides, the T/C % is given as 158% in data set [4] (40 mg/Kg/day) and 182% in data set [4] (60 mg/Kg/day). Besides, the TWI % in data set [4] (40 mg/Kg/day) was determined as 80%; in data set [4] (60 mg/Kg/day), 95%; in data set [5] (17 mg/Kg/day), 65%; in data set [5] (26.6 mg/Kg/day), 58%; in data set [5] (40 mg/Kg/day) it was 64%.
As to `O=C1c2ccncc2C(=O)c2c(NCCN3CC3)ccc(NCCN3CC3)c21` [Compound 10f, 6,9-Bis{[2-(1'-aziridino)ethyl]amino}benzo[g]isoquinoline-5,10-dione], the IC50 in data set [6] was 0.002 mg/L (≈ 5.3 nM).
Regarding `O=C1c2ccncc2C(=O)c2c(NCCNCCO)ccc(NCCNCCO)c21` [Compound 10l.maleate, 6,9-bis{[2-(2-hydroxyethylamino)ethyl]amino}benzo[g]isoquinoline-5,10-dione], the IC50 in data set [6] was 0.06 mg/L. Moreover, in the data set with L1210 murine leukemia (Dose 12.5 mg/kg), the “%T/C” value was found to be 313% and the LTS was 2/6. In addition, in the data set on L1210 murine leukemia (Dose 25 mg/kg), the “%T/C” value came out at 415% and the LTS is recorded as 1/6.
